# Experimental data: patent US20150105252A1, “SUBSTITUTED PYRAZOLES AS HERBICIDES” (E I DU PONT DE NEMOURS AND COMPANY, priority 2013, published 2015)
# Key:
# pigweed [1] = test: Test A preemergence; format: in vivo, Amaranthus retroflexus; conditions: preemergence; for Pigweed plant response rating (0 to 100 scale): visual injury approx. 10 days after treatment
# In short: (§1)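 Greenhouse test in loam soil/sand blend; compounds formulated in non-phytotoxic solvent with surfactant, applied as preemergence directed soil spray or postemergence to plants 2–10 cm tall at one- to two-leaf stage. Injury rated visually versus untreated controls after approximately 10 days on a 0 (no effect) to 100 (complete control) scale.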
# ducksalad = test: Test B flood; format: in vivo, Heteranthera limosa; conditions: 250 g ai/ha, visual rating on 0 to 100 scale (0 no effect, 100 complete control), 13 to 15 days
# In short: (§2)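 Paddy-water application: seedlings at 2-leaf stage, flood depth 3 cm maintained for the test duration. Evaluation after 13–15 days in the greenhouse by eye relative to controls; 0–100 scale.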
# sedge, umbrella = test: Test B flood; format: in vivo, Cyperus difformis; conditions: 250 g ai/ha, visual rating on 0 to 100 scale (0 no effect, 100 complete control), 13 to 15 days
# In short: as §2
# crabgrass, large [2] = test: Test A preemergence; format: in vivo, Digitaria sanguinalis; conditions: preemergence; for Crabgrass, Large plant response rating (0 to 100 scale): visual injury approx. 10 days after treatment
# In short: as §1
# wheat [3] = test: Test A postemergence; format: in vivo, Triticum aestivum
# In short: as §1
# rice = test: Test B flood; format: in vivo, Oryza sativa; conditions: 250 g ai/ha, visual rating on 0 to 100 scale (0 no effect, 100 complete control), 13 to 15 days
# In short: as §2
# foxtail, giant [4] = test: Test A preemergence; format: in vivo, Setaria faberii; conditions: preemergence; for Foxtail, Giant plant response rating (0 to 100 scale): visual injury approx. 10 days after treatment
# In short: as §1
# pigweed [5] = test: Test A postemergence; format: in vivo, Amaranthus retroflexus
# In short: as §1
# morningglory [6] = test: Test A postemergence; format: in vivo, Ipomoea spp.
# In short: as §1
# morningglory [7] = test: Test A preemergence; format: in vivo, Ipomoea spp.; conditions: preemergence; for Morningglory plant response rating (0 to 100 scale): visual injury approx. 10 days after treatment
# In short: as §1
# corn [8] = test: Test A preemergence; format: in vivo, Zea mays; conditions: preemergence; for Corn plant response rating (0 to 100 scale): visual injury approx. 10 days after treatment
# In short: as §1
# barnyardgrass [9] = test: Test A postemergence; format: in vivo, Echinochloa crus-galli
# In short: as §1
# crabgrass, large [10] = test: Test A postemergence; format: in vivo, Digitaria sanguinalis
# In short: as §1
# barnyardgrass [11] = test: Test B flood; format: in vivo, Echinochloa crus-galli; conditions: 250 g ai/ha, visual rating on 0 to 100 scale (0 no effect, 100 complete control), 13 to 15 days
# In short: as §2
# velvetleaf [12] = test: Test A postemergence; format: in vivo, Abutilon theophrasti
# In short: as §1
# foxtail, giant [13] = test: Test A postemergence; format: in vivo, Setaria faberii
# In short: as §1
# corn [14] = test: Test A postemergence; format: in vivo, Zea mays
# In short: as §1
# velvetleaf [15] = test: Test A preemergence; format: in vivo, Abutilon theophrasti; conditions: preemergence; for Velvetleaf plant response rating (0 to 100 scale): visual injury approx. 10 days after treatment
# In short: as §1
# wheat [16] = test: Test A preemergence; format: in vivo, Triticum aestivum; conditions: preemergence; for Wheat plant response rating (0 to 100 scale): visual injury approx. 10 days after treatment
# In short: as §1
# barnyardgrass [17] = test: Test A preemergence; format: in vivo, Echinochloa crus-galli; conditions: preemergence
# In short: as §1
# [18] = 125 g ai/ha, visual injury, 0 to 100 scale, approx. 10 days
# [19] = 500 g ai/ha, visual injury after approx. 10 days, 0 to 100 scale (0 no effect, 100 complete control)
# [20] = Postemergence, 500 g ai/ha, visual rating after approx. 10 days, 0 to 100 scale (0 no effect, 100 complete control)
# [21] = postemergence, 125 g ai/ha, about 10 days, visual rating on 0 to 100 scale (0 no effect, 100 complete control)
# [22] = Postemergence, 500 g ai/ha, 0 to 100 scale (0 no effect, 100 complete control)
Compound,Pigweed plant response rating (pigweed [1]; [19]),"Plant response rating, Ducksalad (ducksalad)","Plant response rating, Sedge, Umbrella (sedge, umbrella)","Crabgrass, Large plant response rating (crabgrass, large [2]; [19])",Wheat plant response rating (wheat [3]; [21]),"Plant response rating, Rice (rice)","Foxtail, Giant plant response rating (foxtail, giant [4]; [19])",Pigweed plant response rating (pigweed [5]; [21]),Morningglory plant response rating (morningglory [6]; [21]),Morningglory plant response rating (morningglory [7]; [19]),Corn plant response rating (corn [8]; [19]),Barnyardgrass plant response rating (barnyardgrass [9]; [21]),"Crabgrass, Large plant response rating (crabgrass, large [10]; [21])","Plant response rating, Barnyardgrass (barnyardgrass [11])",Velvetleaf plant response rating (velvetleaf [12]; [21]),"Foxtail, Giant plant response rating (foxtail, giant [13]; [21])",Corn plant response rating (corn [14]; [21]),Velvetleaf plant response rating (velvetleaf [15]; [19]),Wheat plant response rating (wheat [16]; [19]),Barnyardgrass plant response rating (barnyardgrass [17]; [18]),also measured
CCCc1cc(-c2ccc(C(F)(F)F)cc2)nn1Cc1ccnc(C(F)(F)F)c1 [Compound 113],100,60,70,100,20,30,100,60,40,70,10,10,20,40,40,20,20,40,30,20,"Pigweed plant response rating (pigweed [1]; [18]): 100; Crabgrass, Large plant response rating (crabgrass, large [2]; [18]): 80; Wheat plant response rating (wheat [3]; [20]): 20; Foxtail, Giant plant response rating (foxtail, giant [4]; [18]): 80; Pigweed plant response rating (pigweed [5]; [20]): 100; Morningglory plant response rating (morningglory [6]; [20]): 100; Morningglory plant response rating (morningglory [7]; [18]): 40; Corn plant response rating (corn [8]; [18]): 10; Barnyardgrass plant response rating (barnyardgrass [9]; [20]): 20; Crabgrass, Large plant response rating (crabgrass, large [10]; [20]): 40; Velvetleaf plant response rating (velvetleaf [12]; [20]): 100; Foxtail, Giant plant response rating (foxtail, giant [13]; [20]): 40; Corn plant response rating (corn [14]; [20]): 20; Velvetleaf plant response rating (velvetleaf [15]; [18]): 30; Wheat plant response rating (wheat [16]; [18]): 10; Barnyardgrass plant response rating (barnyardgrass [17]; [19]): 60"
CCCNC(=O)c1cc(CC)n(Cc2cc(C(F)(F)F)nn2CC)n1 [Compound 117],100,50,75,100,0,20,100,50,60,100,10,40,20,0,40,20,20,0,0,30,"Pigweed plant response rating (pigweed [1]; [18]): 90; Crabgrass, Large plant response rating (crabgrass, large [2]; [18]): 90; Wheat plant response rating (wheat [3]; [20]): 0; Foxtail, Giant plant response rating (foxtail, giant [4]; [18]): 70; Pigweed plant response rating (pigweed [5]; [20]): 80; Morningglory plant response rating (morningglory [6]; [20]): 90; Morningglory plant response rating (morningglory [7]; [18]): 30; Corn plant response rating (corn [8]; [18]): 0; Barnyardgrass plant response rating (barnyardgrass [9]; [20]): 80; Crabgrass, Large plant response rating (crabgrass, large [10]; [20]): 80; Velvetleaf plant response rating (velvetleaf [12]; [20]): 80; Foxtail, Giant plant response rating (foxtail, giant [13]; [20]): 90; Corn plant response rating (corn [14]; [20]): 50; Velvetleaf plant response rating (velvetleaf [15]; [18]): 0; Wheat plant response rating (wheat [16]; [18]): 0; Barnyardgrass plant response rating (barnyardgrass [17]; [19]): 80"
CCc1cc(C(=O)NC(C)C)nn1Cc1cc(C(F)(F)F)nn1CC [Compound 120],90,40,80,100,0,0,90,50,80,100,50,30,30,0,30,30,30,70,40,20,"Pigweed plant response rating (pigweed [1]; [18]): 70; Crabgrass, Large plant response rating (crabgrass, large [2]; [18]): 100; Wheat plant response rating (wheat [3]; [22]): 30; Foxtail, Giant plant response rating (foxtail, giant [4]; [18]): 60; Pigweed plant response rating (pigweed [5]; [22]): 80; Morningglory plant response rating (morningglory [6]; [22]): 100; Morningglory plant response rating (morningglory [7]; [18]): 70; Corn plant response rating (corn [8]; [18]): 20; Barnyardgrass plant response rating (barnyardgrass [9]; [22]): 90; Crabgrass, Large plant response rating (crabgrass, large [10]; [22]): 80; Velvetleaf plant response rating (velvetleaf [12]; [22]): 80; Foxtail, Giant plant response rating (foxtail, giant [13]; [22]): 70; Corn plant response rating (corn [14]; [22]): 60; Velvetleaf plant response rating (velvetleaf [15]; [18]): 10; Wheat plant response rating (wheat [16]; [18]): 0; Barnyardgrass plant response rating (barnyardgrass [17]; [19]): 100"
CCc1cc(C(=O)NCC#N)nn1Cc1ccnc(C(F)(F)F)c1 [Compound 147],100,0,0,100,0,0,80,60,30,70,0,10,10,0,30,10,0,30,0,0,"Pigweed plant response rating (0 to 100 scale) (pigweed [1]; 125 g ai/ha): 90; Crabgrass, Large plant response rating (0 to 100 scale) (crabgrass, large [2]; 125 g ai/ha): 50; Wheat plant response rating (wheat [3]; [22]): 0; Foxtail, Giant plant response rating (0 to 100 scale) (foxtail, giant [4]; 125 g ai/ha): 10; Pigweed plant response rating (pigweed [5]; [22]): 90; Morningglory plant response rating (morningglory [6]; [22]): 70; Morningglory plant response rating (0 to 100 scale) (morningglory [7]; 125 g ai/ha): 20; Corn plant response rating (0 to 100 scale) (corn [8]; 125 g ai/ha): 0; Barnyardgrass plant response rating (barnyardgrass [9]; [22]): 30; Crabgrass, Large plant response rating (crabgrass, large [10]; [22]): 40; Velvetleaf plant response rating (velvetleaf [12]; [22]): 50; Foxtail, Giant plant response rating (foxtail, giant [13]; [22]): 30; Corn plant response rating (corn [14]; [22]): 10; Velvetleaf plant response rating (0 to 100 scale) (velvetleaf [15]; 125 g ai/ha): 0; Wheat plant response rating (0 to 100 scale) (wheat [16]; 125 g ai/ha): 0; Barnyardgrass plant response rating (barnyardgrass [17]; [19]): 30"
CCCCc1cc(C(=O)NOCC)nn1Cc1ccnc(C(F)(F)F)c1 [Compound 152],100,0,0,80,0,0,60,60,40,20,0,10,10,0,20,10,10,20,0,0,"Pigweed plant response rating (0 to 100 scale) (pigweed [1]; 125 g ai/ha): 100; Crabgrass, Large plant response rating (0 to 100 scale) (crabgrass, large [2]; 125 g ai/ha): 40; Wheat plant response rating (wheat [3]; [22]): 0; Foxtail, Giant plant response rating (0 to 100 scale) (foxtail, giant [4]; 125 g ai/ha): 10; Pigweed plant response rating (pigweed [5]; [22]): 80; Morningglory plant response rating (morningglory [6]; [22]): 60; Morningglory plant response rating (0 to 100 scale) (morningglory [7]; 125 g ai/ha): 0; Corn plant response rating (0 to 100 scale) (corn [8]; 125 g ai/ha): 0; Barnyardgrass plant response rating (barnyardgrass [9]; [22]): 50; Crabgrass, Large plant response rating (crabgrass, large [10]; [22]): 60; Velvetleaf plant response rating (velvetleaf [12]; [22]): 60; Foxtail, Giant plant response rating (foxtail, giant [13]; [22]): 40; Corn plant response rating (corn [14]; [22]): 30; Velvetleaf plant response rating (0 to 100 scale) (velvetleaf [15]; 125 g ai/ha): 0; Wheat plant response rating (0 to 100 scale) (wheat [16]; 125 g ai/ha): 0; Barnyardgrass plant response rating (barnyardgrass [17]; [19]): 60"
